Literature values as cited in patent US7935365B2, “Glycerophospholipids for the improvement of cognitive functions” (Enzymotec, Ltd., priority 2003, dated 2011).
Like-named read-outs stand apart in the source and are kept apart here.

SMILES | Improvement of the ADHD index, previously reported (Alhambra et al. (1995)) | Improvement of the ADHD index, previously reported (Rugino and Copley (2001)) [SD]
COC(=O)C(c1ccccc1)C1CCCCN1 (racemic) [methylphenidate, DL-threo-Methylphenidate] | exceed 80% | –
NC(=O)C[S+]([O-])C(c1ccccc1)c1ccccc1 (centres unmarked) [modafinil] | – | > 2.5
